# Results taken from PMC10120551, “Novel Glu-based pyrazolo[3,4-d]pyrimidine analogues: design, synthesis and biological evaluation as DHFR and TS dual inhibitors” (Journal of Enzyme Inhibition and Medicinal Chemistry, 2023).
# What was measured:
# SK-MEL-28 = assay: cells; conditions: Homo sapiens
# OVCAR-3 (Ovarian Cancer) = assay: MTT cytotoxicity assay; format: cell-based, human; conditions: for IC50: OVCAR-3, MTT, 48 h, mean ± SD from triplicates
# Procedure: (§1) The MTT assay was carried out according to the procedure cited earlier. Briefly, in a 96-well plate, either cancer or normal cells were seeded (10^6 cells/cm^2; 100 µL/well) and incubated for 12 h at 37 °C and CO2 (5%), then serial dilutions of compound 6i were added and incubated for 48 h using DMSO control (0.5% V/V). MTT (3-(4,5-dimethylthiazoyl)-2,5-diphenyl-tetrazolium bromide; Cat. No. M-5655) 5 mg/mL was then added. After 4 h incubation, the formed MTT formazan crystals were solubilised by 10% Triton X-100 plus 0.1 N HCl in anhydrous isopropanol. The absorbance was read using a Bioline plate reader at λ570–630 nm[25–29]. The selectivity of 6i towards HSF cells was also determined as follows[30]^,[31]: SI=IC50HSF cells/IC50of cancer cells
# PC-3 (Prostate cancer) = assay: MTT cytotoxicity assay; format: cell-based, human
# Procedure: as §1
# MCF-7 (Breast cancer) = assay: MTT cytotoxicity assay; format: cell-based, human
# Procedure: as §1
# MCF-7 cells = assay: Apoptosis analysis (annexin-V/PI, flow cytometry); format: cell-based, human; conditions: MCF-7, 10 µM, 24 h; DMSO control 0.29%
# Procedure: Figure 5. Flow cytometric analyses: cell cycle distribution analysis using PI staining method in which MCF-7 cells were treated by 6i (10 µM) and DMSO (negative control; NC) for 48 h; (A) 6i, (B) DMSO, (C) cells percentage in different phases (G0-G1, S, G2/M); apoptotic induction using annexin-V-FITC/PI staining method in which cancer cells were treated by 6i (10 µM) and DMSO (negative control; NC) for 24 h; (D) 6i, (E) DMSO, (F) histogram for induction of apoptosis.
# Again, MCF-7 cells were treated with 6i (10 µM) to assess its effect on cell apoptosis. As shown in Figure 5(D,E), the fraction of cells in early apoptosis were 26.27% and 0.43%, while in late apoptosis, they were 8.90% and 0.29% for compound 6i and DMSO control, respectively. The obtained results hinted that compound 6i could induce apoptotic pathways. However, the ratio of apoptosis inferred that the anti-proliferative effect of compound 6i was largely dependent on apoptosis.
# The MCF-7 cells (10^6 cells/ml) were treated with either 10 µM of 6i or DMSO (NC) for 24 h. After that, the cells were trypsinised, collected, washed, and stained with PE-Annexin-V (BioVision, K101-25) in the presence of PI[67]. The induction of apoptosis was analysed by flow cytometry using BD FACS Calibur[67].
# MCF7 = conditions: MCF7, Breast cancer; five-dose 0.01–100 µM
# NCI-H23 = assay: cells; conditions: Homo sapiens
# OVCAR-8 = conditions: OVCAR-8, Ovarian cancer; five-dose 0.01–100 µM
# 786-0 = conditions: 786-0, Renal cancer; five-dose 0.01–100 µM
# COLO 205 = conditions: COLO 205, Colon cancer; five-dose 0.01–100 µM
structure (smiles),measurement,setting,value
CCOC(=O)CC[C@H](NC(=O)c1ccc(NC(=O)Cn2cnc3c(c(C)nn3-c3ccc(Br)cc3)c2=O)cc1)C(=O)OCC [Compound 6i],GI50,SK-MEL-28; SK-MEL-28,10.1 µM
same,CC50,"SK-MEL-28; SK-MEL-28, read-out: LC50",50.2 µM
same,IC50,"OVCAR-3 (Ovarian Cancer); Homo sapiens, OVCAR-3, 48 h",11.5 µM
same,Selectivity index,OVCAR-3 (Ovarian Cancer); IC50 HSF cells / IC50 OVCAR-3,4.21
same,IC50,OVCAR-3 (Ovarian Cancer),11.5 ± 0.58 µM
same,IC50,"PC-3 (Prostate cancer); Homo sapiens, PC-3, MTT, 48 h, mean ± SD from triplicates",12.4 ± 0.62 µM
same,Selectivity index,PC-3 (Prostate cancer); IC50 HSF cells / IC50 PC-3,3.91
same,IC50,"MCF-7 (Breast cancer); Homo sapiens, MCF7, MCF-7, MTT, 48 h, mean ± SD from triplicates",4.4 ± 0.26 µM
same,Selectivity index,MCF-7 (Breast cancer); IC50 HSF cells / IC50 MCF-7,11.02
same,fraction of cells in late apoptosis,MCF-7 cells,8.90%
same,TGI,MCF7,16.5 µM
same,GI50,NCI-H23; NCI-H23,7.64 µM
same,CC50,"NCI-H23; NCI-H23, read-out: LC50",82.1 µM
same,TGI,OVCAR-8,>100 µM
same,TGI,786-0,>100 µM
same,TGI,COLO 205,36.7 µM
same,TGI,"full NCI 59 cell panel; HL-60(TB), CCRF-CEM, MOLT-4, K-562, SR, RPMI-8226, HCC-2998, HCT-15, HCT-116, KM12, U250, M14, UACC-257, OVCAR-8, SN12C, 786-0, T-47D, BT-549",more than 100 µM
same,Full panel MG-MID,"full NCI 59 cell panel; mean graph midpoint based on GI50, full NCI 59 cell panel",20.45 µM
